# Experimental data from patent publication US10857110B2, “Antibacterial compounds” (CONSEJO NACIONAL DE INVESTIGACIONES CIENTÍFICAS Y TÉCNICAS …, priority 2016, dated 2020).
# How the values were obtained:
# [1] = tested on: Burkholderia seminalis (CBC 040); details: reference (1); cited from earlier work
# [2] = tested on: Achromobacter xylosaxidans (HNA001); test: MIC/MBC antibiotic sensitivity (CLSI); type: cell-based, Achromobacter xylosoxidans; details: Ceftazimide, CLSI criteria; A. xylosaxidans (HNA001)
# Description: (§1) The new compounds of the invention were synthesized following the general method of preparation (Tetrahedron, 2001, 57, 1671-1675), from the reaction between an intermediary compound of the acyl thiourea and HgCl2 in presence of trimethylamine. The products were adequately characterized regarding its chemistry. The antibacterial activity of the new compounds was assayed against two Gram-positive reference strains: Staphylococcus aureus (ATCC6538) and Bacillus cereus (ATCC10876), a fermenting Gram-negative strain: Escherichia coli (ATCC25922), and 26 non-fermenting Gram-negative isolates, including 3 reference strains: Pseudomonas aeruginosa (PAO1), Bordetella bronchiseptica (9.73H+), and Inquilinus limosus (DSM16000), and 23 isolates recovered from patients suffering from cystic fibrosis, including one Achromobacter xylosoxidans isolate, and 22 isolates belonging to the Burkholderia cepacia complex. The later were selected because they presented resistance to a high number of antimicrobial compounds, among a panel of 125 clinical isolates previously analyzed for its resistance against 17 antimicrobial compounds (1,2). The antibiotic sensitivity studies were performed by applying two quantitative methods which allow to determine the minimum inhibitory concentration (MIC) and the minimum bactericidal concentration (MBC).
# (§2) The compounds obtained in Examples 1 and 2 were assayed against 23 isolates recovered from the sputum of patients suffering from cystic fibrosis being treated at the Sor Maria Ludovica Children Hospital (La Plata, Buenos Aires, Argentina). Nineteen of these isolates were selected for being highly resistant to most of the antimicrobial agents of clinical use from a panel of 125 isolates previously characterized in Martina et al. (1). Reference strains were also included: Gram (+) bacteria: B. cereus and S. aureus, fermenting Gram (−) bacteria: E. coli, and non-fermenting Gram (−) bacteria: Inquilinus limosus (DSM16000), B. bronchiseptica, and Pseudomonas aeruginosa (PAO1). The antibiotic sensitivity studies were performed applying two quantitative methods which allow to determine the minimum inhibitory concentration (MIC) and the minimum bactericidal concentration (MBC) according to the criteria established by the Clinical and Laboratory Standards Institute (CLSI) (4). For comparative purposes, three antibiotics commonly used in the treatment of pulmonary infections in cystic fibrosis patients were included in the study: tobramycin, ceftazidime and meropenem.
# B. contaminans (HNBC001) = test: MIC/MBC antibiotic sensitivity (CLSI); type: cell-based; details: Ceftazimide, CLSI criteria
# Description: as §1, §2
# [3] = tested on: Burkholderia multivorans (CBC 019); test: MIC/MBC antibiotic sensitivity (CLSI); type: cell-based; details: Ceftazimide, CLSI criteria; B. multivorans (CBC 019)
# Description: as §1, §2
# [4] = tested on: Burkholderia cenocepacia (CBC 031); test: MIC/MBC antibiotic sensitivity (CLSI); type: cell-based
# Description: as §1, §2
# [5] = tested on: Staphylococcus aureus (ATCC6538); test: MIC/MBC antibiotic sensitivity (CLSI); type: cell-based; details: S. aureus (ATCC6538)
# Description: as §1, §2
# [6] = tested on: Burkholderia seminalis (CBC 042); test: MIC/MBC antibiotic sensitivity (CLSI); type: cell-based; details: Ceftazimide, CLSI criteria; B. seminalis (CBC 042)
# Description: as §1, §2
# [7] = tested on: Burkholderia cenocepacia (CBC 032); test: MIC/MBC antibiotic sensitivity (CLSI); type: cell-based
# Description: as §1, §2
# [8] = tested on: Burkholderia cenocepacia (HE001); test: MIC/MBC antibiotic sensitivity (CLSI); type: cell-based; details: Ceftazimide, CLSI criteria; B. cenocepacia (HE001)
# Description: as §1, §2
# [9] = tested on: Burkholderia multivorans (CBC 018); test: MIC/MBC antibiotic sensitivity (CLSI); type: cell-based
# Description: as §1, §2
# [10] = tested on: Burkholderia multivorans (CBC 016); test: MIC/MBC antibiotic sensitivity (CLSI); type: cell-based
# Description: as §1, §2
# [11] = tested on: Inquilinus limosus (DSM16000); test: MIC/MBC antibiotic sensitivity (CLSI); type: cell-based; details: Ceftazimide, CLSI criteria
# Description: as §1, §2
# [12] = tested on: Pseudomonas aeruginosa (PAO1); test: MIC/MBC antibiotic sensitivity (CLSI); type: cell-based; details: P. aeruginosa (PAO1)
# Description: as §1, §2
# [13] = tested on: Burkholderia cepacia (CBC 010); test: MIC/MBC antibiotic sensitivity (CLSI); type: cell-based; details: Ceftazimide, CLSI criteria; B. cepacia (CBC 010)
# Description: as §1, §2
# [14] = tested on: Burkholderia cepacia (CBC 011); test: MIC/MBC antibiotic sensitivity (CLSI); type: cell-based; details: Ceftazimide, CLSI criteria; B. cepacia (CBC 011)
# Description: as §1, §2
# [15] = tested on: Burkholderia multivorans (CBC 015); test: MIC/MBC antibiotic sensitivity (CLSI); type: cell-based
# Description: as §1, §2
# [16] = tested on: Burkholderia cenocepacia (CBC 033); test: MIC/MBC antibiotic sensitivity (CLSI); type: cell-based
# Description: as §1, §2
# [17] = tested on: Bacillus cereus (ATCC10876); test: MIC/MBC antibiotic sensitivity (CLSI); type: cell-based
# Description: as §1, §2
# [18] = tested on: Burkholderia cenocepacia (CBC 024); test: MIC/MBC antibiotic sensitivity (CLSI); type: cell-based
# Description: as §1, §2
# [19] = tested on: Bordetella bronchiseptica (9.73H+); test: MIC/MBC antibiotic sensitivity (CLSI); type: cell-based; details: B. bronchiseptica (9.73H+)
# Description: as §1, §2
# [20] = tested on: Escherichia coli (ATCC25922); test: MIC/MBC antibiotic sensitivity (CLSI); type: cell-based; details: E. coli (ATCC25922)
# Description: as §1, §2
# [21] = tested on: Burkholderia multivorans (CBC 021); test: MIC/MBC antibiotic sensitivity (CLSI); type: cell-based; details: Ceftazimide, CLSI criteria; B. multivorans (CBC 021)
# Description: as §1, §2
# [22] = tested on: Burkholderia cenocepacia (CBC 023); test: MIC/MBC antibiotic sensitivity (CLSI); type: cell-based; details: Ceftazimide, CLSI criteria; B. cenocepacia (CBC 023)
# Description: as §1, §2
# [23] = tested on: Burkholderia multivorans (CBC 020); test: MIC/MBC antibiotic sensitivity (CLSI); type: cell-based; details: Ceftazimide, CLSI criteria; B. multivorans (CBC 020)
# Description: as §1, §2
# [24] = tested on: Burkholderia multivorans (CBC 022); test: MIC/MBC antibiotic sensitivity (CLSI); type: cell-based; details: Ceftazimide, CLSI criteria; B. multivorans (CBC 022)
# Description: as §1, §2
# [25] = tested on: Burkholderia cenocepacia (CBC 036); test: MIC/MBC antibiotic sensitivity (CLSI); type: cell-based
# Description: as §1, §2
# [26] = tested on: Burkholderia cenocepacia (CBC 029); test: MIC/MBC antibiotic sensitivity (CLSI); type: cell-based
# Description: as §1, §2
# [27] = tested on: Burkholderia seminalis (CBC 040); test: MIC/MBC antibiotic sensitivity (CLSI); type: cell-based; details: Ceftazimide, CLSI criteria; B. seminalis (CBC 040)
# Description: as §1, §2
# [28] = tested on: Burkholderia cenocepacia (CBC 035); test: MIC/MBC antibiotic sensitivity (CLSI); type: cell-based
# Description: as §1, §2
# B. cenacepacia (FQC2524) = test: MIC/MBC antibiotic sensitivity (CLSI); type: cell-based, B. cenocepacia; details: Ceftazimide, CLSI criteria
# Description: as §1, §2
compound,measurement,setting,value
"CC(C)(O/N=C(\C(=O)N[C@@H]1C(=O)N2C(C(=O)[O-])=C(C[n+]3ccccc3)CS[C@H]12)c1csc(N)n1)C(=O)O [Ceftazimide, ceftazidime]",resistance of the strain to commercial antibiotics,[1],resistant
same,MIC (R/I/S category),[2],S (<8 μg/ml S)
same,MIC (R/I/S category),B. contaminans (HNBC001),S (<8 μg/ml S)
same,MIC (R/I/S category),[3],R (>32 μg/ml R)
same,MBC,[4]; Burkholderia cenocepacia (CBC 031),7.81 µg/mL
same,MIC (R/I/S category),"[4]; Ceftazimide, CLSI criteria, B. cenocepacia (CBC 031)",S (<8 μg/ml S)
same,MBC,[5],7.81 µg/mL
same,MIC,[5],7.81 µg/mL
same,MIC (R/I/S category),[6],R (>32 μg/ml R)
same,MBC,[7]; Burkholderia cenocepacia (CBC 032),7.81 µg/mL
same,MIC (R/I/S category),"[7]; Ceftazimide, CLSI criteria, B. cenocepacia (CBC 032)",S (<8 μg/ml S)
same,MIC (R/I/S category),[8],R (>32 μg/ml R)
same,MBC,[9]; Burkholderia multivorans (CBC 018),7.81 µg/mL
same,MIC (R/I/S category),"[9]; Ceftazimide, CLSI criteria, B. multivorans (CBC 018)",S (<8 μg/ml S)
same,MBC,[10]; Burkholderia multivorans (CBC 016),3.9 µg/mL
same,MIC (R/I/S category),"[10]; Ceftazimide, CLSI criteria, B. multivorans (CBC 016)",S (<8 μg/ml S)
same,MIC (R/I/S category),[11],R (>32 μg/ml R)
same,MBC,[12],1.95 µg/mL
same,MIC,[12],1.95 µg/mL
same,MIC (R/I/S category),[13],R (>32 μg/ml R)
same,MIC (R/I/S category),[14],R (>32 μg/ml R)
same,MBC,[15]; Burkholderia multivorans (CBC 015),7.81 µg/mL
same,MIC (R/I/S category),"[15]; Ceftazimide, CLSI criteria, B. multivorans (CBC 015)",S (<8 μg/ml S)
same,MBC,[16]; Burkholderia cenocepacia (CBC 033),31.25 µg/mL
same,MIC (R/I/S category),"[16]; Ceftazimide, CLSI criteria, B. cenocepacia (CBC 033)",S (<8 μg/ml S)
same,MBC,[17],0.97 µg/mL
same,MIC,[17],0.97 µg/mL
same,MBC,[18]; Burkholderia cenocepacia (CBC 024),7.81 µg/mL
same,MIC (R/I/S category),"[18]; Ceftazimide, CLSI criteria, B. cenocepacia (CBC 024)",S (<8 μg/ml S)
same,MBC,[19],62.5 µg/mL
same,MIC,[19],7.81 µg/mL
same,MBC,[20],0.97 µg/mL
same,MIC,[20],0.97 µg/mL
same,MIC (R/I/S category),[21],R (>32 μg/ml R)
same,MIC (R/I/S category),[22],R (>32 μg/ml R)
same,MIC (R/I/S category),[23],R (>32 μg/ml R)
same,MIC (R/I/S category),[24],R (>32 μg/ml R)
same,MBC,[25]; Burkholderia cenocepacia (CBC 036),15.62 µg/mL
same,MIC (R/I/S category),"[25]; Ceftazimide, CLSI criteria, B. cenocepacia (CBC 036)",S (<8 μg/ml S)
same,MBC,[26]; Burkholderia cenocepacia (CBC 029),15.62 µg/mL
same,MIC (R/I/S category),"[26]; Ceftazimide, CLSI criteria, B. cenocepacia (CBC 029)",S (<8 μg/ml S)
same,MIC (R/I/S category),[27],R (>32 μg/ml R)
same,MBC,[28]; Burkholderia cenocepacia (CBC 035),15.62 µg/mL
same,MIC (R/I/S category),"[28]; Ceftazimide, CLSI criteria, B. cenocepacia (CBC 035)",S (<8 μg/ml S)
same,MIC (R/I/S category),B. cenacepacia (FQC2524),S (<8 μg/ml S)
NCC[C@H](O)C(=O)N[C@@H]1C[C@H](N)[C@@H](O[C@H]2O[C@H](CN)[C@@H](O)[C@H](O)[C@H]2O)[C@H](O)[C@H]1O[C@H]1O[C@H](CO)[C@@H](O)[C@H](N)[C@H]1O [amikacin],resistance of the strain to commercial antibiotics,[1],resistant
CC1(C)S[C@@H]2[C@H](NC(=O)[C@H](N)c3ccccc3)C(=O)N2[C@H]1C(=O)O [ampicillin],resistance of the strain to commercial antibiotics,[1],resistant
CC(=O)OCC1=C(C(=O)O)N2C(=O)[C@@H](NC(=O)Cc3cccs3)[C@H]2SC1 [cefalotin],resistance of the strain to commercial antibiotics,[1],resistant
CO/N=C(\C(=O)N[C@@H]1C(=O)N2C(C(=O)[O-])=C(C[N+]3(C)CCCC3)CS[C@H]12)c1csc(N)n1 [cefepime],resistance of the strain to commercial antibiotics,[1],resistant
CO/N=C(\C(=O)N[C@@H]1C(=O)N2C(C(=O)O)=C(COC(C)=O)CS[C@H]12)c1csc(N)n1 [cefotaxim],resistance of the strain to commercial antibiotics,[1],resistant
CO[C@@]1(NC(=O)Cc2cccs2)C(=O)N2C(C(=O)O)=C(COC(N)=O)CS[C@@H]21 [cefoxitin],resistance of the strain to commercial antibiotics,[1],resistant
O=C(O)c1cn(C2CC2)c2cc(N3CCNCC3)c(F)cc2c1=O [ciprofloxacin],resistance of the strain to commercial antibiotics,[1],resistant
CCn1cc(C(=O)O)c(=O)c2ccc(C)nc21 [nalidixic acid],resistance of the strain to commercial antibiotics,[1],resistant
colistin,resistance of the strain to commercial antibiotics,[1],resistant
gentamicin,resistance of the strain to commercial antibiotics,[1],resistant
